Results reported in patent US20220105054A1, “ABSORPTION ENHANCER OF CINNAMIC ACID DERIVATIVE” (YAMADA BEE COMPANY, INC., priority 2020, published 2022).
Like-named read-outs stand apart in the source and are kept apart here.

Conditions: rat, in vivo; for AUC Mean ± SD / Cmax Mean ± SD: po, 50 mg/kg
Experimental: The following administration liquids were prepared. 10% propylene glycol: a propylene glycol liquid having a concentration of 10% was prepared by diluting propylene glycol with distilled water.
Propolis solution: the required amount of propolis powder (Brazilian green propolis) was weighed and ground in a mortar, and the 10% propylene glycol was added to dissolve the powder to prepare a propolis solution with a concentration of 25 mg/mL as the propolis concentration.
Curcumin suspension: the required amount of curcumin powder (C. longa extract (ethyl acetate extract powder, curcumin content of 95% by mass)) was weighed and ground in a mortar, and then the 10% propylene glycol was added to suspend the powder to prepare a curcumin suspension with a curcumin concentration of 100 mg/mL.
Eighteen 7-week-old male rats (Slc: Wistar/ST, SPF, Japan SLC, Inc.) were acclimated for 7 days. The rats were allowed to freely ingest the solid feed CRF-1 (Oriental Yeast Co., ltd.). The rats were fasted for 8 to 10 hours before the administration of the administration liquids. The rats were divided into three groups of six rats each by a stratified allocation method using EXSUS (Version 10.0.0, EP Croit Co., Ltd.) so that the weight of each group was equal.
In the propolis group, the propolis solution was administered immediately after the administration of 10% propylene glycol. In the propolis+curcumin A group, the propolis solution was administered immediately after the administration of the curcumin suspension. In the propolis+curcumin B group, the propolis solution was administered about 30 minutes after the administration of the curcumin suspension. The administration was carried out in a volume of 2 ml/kg rat body weight for each administration solution. In other words, 50 mg of propolis and 200 mg of curcumin were administered per 1 kg of rat body weight. The administration was carried out under no anesthesia by using a syringe (Terumo Corporation) and an oral feeding needle for rats (Fuchigami Kikai, Ltd).
Blood collection of rats was carried out once 30 minutes before the administration of propolis solution (but before the administration of curcumin suspension in the group with the curcumin suspension administrated) and 0.5, 1, 1.5, 2, 3, 6, 9, and 24 hours after the administration of propolis solution. At each blood sampling time, the tail of rats was disinfected with 70% ethanol under no anesthesia, and then the tip of the tail was cut with a razor to collect about 150 μL of leaking blood by using a hematocrit tube (Fisher Scientific 22-362-566). Nine hours after administration of the propolis solution, feeding was resumed for all fasting animals.
The blood, which had been stored in ice after collection, was centrifuged (1600 ×g, 10 min, 4° C.) using a micro high-speed cooling centrifuge (model MX-100: Tomy Seiko Co., Ltd.) to collect plasma from the blood. The plasma was frozen and stored in a −80° C. freezer.
The concentrations of p-coumaric acid, artepillin C, drupanin, culifolin, capillartemisin A, 3,4-dihydroxy-5-prenyl-(E)-cinnamic acid, and 2,2-dimethylchromene-6-(E)-propenoic acid, kaempferide, 6-methoxy kaempferide, and dihydro kaempferide in the resulting plasma were quantified by LCMS.
For each ingredient, the maximum blood concentration (Cmax) and the area under the curve (AUC) were calculated from the resulting concentrations. AUC is an indicator of the total amount of each ingredient absorbed into the body. […] The ratio in the table indicates the ratio of the mean value of the propolis+curcumin A group to that of the propolis group. Statistics were carried out by t-test.

Compound | AUC Ratio | Cmax Ratio | AUC Mean ± SD | Cmax Mean ± SD | AUC Ratio (male, Slc: Wistar/ST) | Cmax Ratio (male, Slc: Wistar/ST) | increase in absorption compared to the propolis group
CC(C)=CCc1cc(/C=C/C(=O)O)cc2c1OC(C)(C)C=C2 [Culifolin] | 1.26 | 1.34 | 1088.92 ± 68.35 | 68.98 ± 5.16 |  |  | 
CC(C)=CCc1cc(/C=C/C(=O)O)cc(O)c1O [3,4-dihydroxy-5-prenyl-(E)-cinnamic acid] |  |  | 51.02 ± 28.27 | 7.5 ± 7.5 | 1.25 | 1.53 | 
CC(C)=CCc1cc(/C=C/C(=O)O)cc(C/C=C(\C)CO)c1O [Capillartemisin A] | 1.83 | 1.91 | 109.74 ± 12.25 | 10.39 ± 2.01 |  |  | 
CC(C)=CCc1cc(/C=C/C(=O)O)cc(CC=C(C)C)c1O [Artepillin C] | 1.39 | 1.7 | 811.33 ± 191.31 | 77.7 ± 13.11 |  |  | 
COc1ccc(-c2oc3cc(O)cc(O)c3c(=O)c2O)cc1 [kaempferide, reference compound] |  |  |  |  |  |  | no significant increase in absorption was observed
COc1ccc(C2Oc3cc(O)cc(O)c3C(=O)C2O)cc1 (stereo not shown) [dihydro kaempferide, reference compound] |  |  |  |  |  |  | no significant increase in absorption was observed
O=C(O)/C=C/c1ccc(O)cc1 [p-Coumaric acid] |  |  | 983.44 ± 372.02 | 343.72 ± 41.6 | 1.07 | 1.42 | 
CC(C)=CCc1cc(/C=C/C(=O)O)ccc1O [Drupanin] | 1.41 | 1.98 | 486.19 ± 34.29 | 93.12 ± 19.93 |  |  | 
COc1ccc(-c2oc3cc(O)c(OC)c(O)c3c(=O)c2O)cc1 [6-methoxy kaempferide, reference compound] |  |  |  |  |  |  | no significant increase in absorption was observed
CC1(C)C=Cc2cc(/C=C/C(=O)O)ccc2O1 [2,2-dimethylchromene-6-(E)-propenoic acid] | 1.27 | 1.56 | 84.5 ± 4.49 | 18.48 ± 4.02 |  |  | 
